Laboratory results as given in patent US20080242649A1, “New Combination 665” (priority 2007, published 2008).
Structures can show the parent of a compound that is named as a salt.

What was measured:
[1] = biological target: T1, recombinant human Dopamine Subtype D2s receptors (Homo sapiens, UniProt P14416); assay: Dopamine D2 [3H]-spiperone binding; details: inhibition of [3H]-spiperone binding; read-out: D2 bind pIC50 (converted)
T1 construct: purchased Perkin Elmer
Description: (§1) Membranes containing recombinant human Dopamine Subtype D2s receptors were obtained from Perkin Elmer. These were diluted in Assay Buffer (50 mM HEPES, 1 mM EDTA, 120 mM NaCl, 0.1% gelatin, pH 7.4) to provide a final concentration of membranes that gave a clear window between maximum and minimum specific binding.
Assays were performed in U-bottomed 96-well polypropylene plates. 30 PL [^3H]-spiperone (0.16 nM final concentration) and 30 μL of Compound A (10× final concentration) were added to each test well. For each assay plate 8 replicates were obtained for [^3H]-spiperone binding in the presence of 30 PL vehicle (10% (v/v) DMSO in Assay Buffer; defining maximum binding) or 30 μL Haloperidol (10 PM final concentration; defining non-specific binding (NSB)). Membranes were then added to achieve a final volume of 300 μL. […] Five washes with 250 μL wash buffer (50 mM HEPES, 1 mM EDTA, 120 mM NaCl, pH 7.4) were performed at 4° C. to remove unbound radioactivity. […] The plates were sealed (TopSeal A) and filter-bound radioactivity was measured with a scintillation counter (TopCount, Packard BioScience) using a 3-minute counting protocol.
(§2) Total specific binding (B0) was determined by subtracting the mean NSB from the mean maximum binding. […]

[2] = tested on: LPS-induced intra-alveolar neutrophilia; assay: Intra-alveolar neutrophil migration after intratracheal LPS challenge in the CRL:CD rat; format: in vivo
Description: Evaluation of Compound Activity on Intra-Alveolar Neutrophil Migration after Intratracheal Challenge with Lipopolysacharride (LPS) in the CRL:CD Rat
LPS challenge in CRL:CD rats causes an influx of neutrophils into the lungs. Under recoverable gaseous anaesthesia (5% isoflorane in oxygen), rats were dosed via the intratracheal route with vehicle (0.05M phosphate, 0.1% Tween 80, 0.6% saline, pH 6), or compound 30 min before challenge with an intratracheal dose of 10 μg/kg LPS.
The rats (250-400 g) were euthanized 4 hr after LPS challenge with 1 mL pentobarbitone sodium. A tracheotomy was performed and a cannula inserted. The airway was then lavaged using 3 mL Isoton at room temperature. The Isoton (BeckmanCoulter, High Wycombe, UK) was left in the airway for 10 seconds before being removed. The bronchio-alveolar lavage (BAL) fluid containing inflammatory cells was placed into a 15 mL centrifuge tube and kept on ice. This process was repeated three times. An aliquot of BAL fluid was removed and the inflammatory cells were counted on Sysmex (Sysmex UK, Milton Keynes). Neutrophils were expressed in millions/animal (mean ±s.e.mean).

[3] = biological target: T2, recombinant human adrenergic beta 1 receptors (Homo sapiens, UniProt P08588); assay: Adrenergic β1 [125I]-Iodocyanopindolol binding; details: inhibition of [125I]-Iodocyanopindolol binding; read-out: β1 bind pIC50 (converted)
T2 construct: purchased Euroscreen
T2 sequence (P08588 whole entry): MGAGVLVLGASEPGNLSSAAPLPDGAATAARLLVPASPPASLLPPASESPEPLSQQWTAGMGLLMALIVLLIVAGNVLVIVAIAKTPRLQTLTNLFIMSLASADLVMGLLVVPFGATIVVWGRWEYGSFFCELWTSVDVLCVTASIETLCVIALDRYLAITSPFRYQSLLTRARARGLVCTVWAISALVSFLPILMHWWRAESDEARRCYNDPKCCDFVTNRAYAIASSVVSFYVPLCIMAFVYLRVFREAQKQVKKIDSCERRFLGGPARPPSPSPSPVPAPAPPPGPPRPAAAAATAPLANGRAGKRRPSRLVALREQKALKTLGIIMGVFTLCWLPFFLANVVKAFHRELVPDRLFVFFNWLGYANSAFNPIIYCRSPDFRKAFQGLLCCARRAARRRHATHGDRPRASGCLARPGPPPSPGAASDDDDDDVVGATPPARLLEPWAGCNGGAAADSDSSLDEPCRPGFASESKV
Description: as §1, with “adrenergic beta 1” for “Dopamine Subtype D2s”, “Euroscreen.” for “Perkin Elmer.”
Assays were performed in U-bottomed 96-well polypropylene plates. 10 PL [1251]-Iodocyanopindolol (0.036 nM final concentration) and 10 μL of Compound A (10× final concentration) were added to each test well. For each assay plate 8 replicates were obtained for [^125]-Iodocyanopindolol binding in the presence of 10 μL vehicle (10% (v/v) DMSO in Assay Buffer; defining maximum binding) or 10 μL Propranolol (10 μM final concentration; defining non-specific binding (NSB)). Membranes were then added to achieve a final volume of 100 μL. […] Five washes with 250 μL wash buffer (50 mM HEPES, 1 mM EDTA, 120 mM NaCl, pH 7.4) were performed at 4° C. to remove unbound radioactivity. […] The plates were sealed (TopSeal A) and filter-bound radioactivity was measured with a scintillation counter (TopCount, Packard BioScience) using a 3-minute counting protocol.
as §2

T1 sequence (P14416 1-414 isoform P14416-2): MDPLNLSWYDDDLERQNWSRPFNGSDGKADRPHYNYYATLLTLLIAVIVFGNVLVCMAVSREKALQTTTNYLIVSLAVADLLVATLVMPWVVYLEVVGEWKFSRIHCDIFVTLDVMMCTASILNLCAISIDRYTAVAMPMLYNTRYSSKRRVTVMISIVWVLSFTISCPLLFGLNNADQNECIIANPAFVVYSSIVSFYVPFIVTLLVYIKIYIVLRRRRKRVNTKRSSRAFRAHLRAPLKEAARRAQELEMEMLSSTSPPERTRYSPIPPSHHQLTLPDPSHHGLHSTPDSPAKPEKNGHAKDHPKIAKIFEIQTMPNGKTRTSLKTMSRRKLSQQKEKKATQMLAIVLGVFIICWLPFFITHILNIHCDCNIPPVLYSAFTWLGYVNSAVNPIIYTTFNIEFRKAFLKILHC

For `CCN(CC)CCN(CCNCCc1ccc(O)c2[nH]c(=O)sc12)C(=O)CCOCCc1cccc2ccccc12` [Compound A, N-[2-(Diethylamino)ethyl]-N-(2-{[2-(4-hydroxy-2-oxo-2,3-dihydro-1,3-benzothiazol-7-yl)ethyl]amino}ethyl)-3-[2-(1-naphthyl)ethoxy]propanamide dihydrobromide], the IC50 [1] was 794 nM, the inhibition of neutrophilia ([2]; Compound W study, compound A 0.1 μg/kg intratracheal 30 min prior to LPS) was 43% and the “neutrophils in BAL” value ([2]; Compound W study, compound A 0.1 μg/kg, vehicle/LPS 11±1.8) was 5.0±0.70 million/animal. The inhibition of neutrophilia ([2]; Compound X study, compound A 0.1 μg/kg intratracheal 30 min prior to LPS) was 26%, the “neutrophils in BAL” value ([2]; Compound X study, compound A 0.1 μg/kg, vehicle/LPS 12±1.7) was 9.1±1.1 million/animal and the inhibition of neutrophilia ([2]; budesonide study, compound A 0.2 μg/kg intratracheal 30 min prior to LPS 10 μg/kg, BAL 4 hr) was 45%. For the same compound, the “neutrophils in BAL” value ([2]; budesonide study, compound A 0.2 μg/kg intratracheal, mean ±s.e.mean, vehicle/LPS 14±1.6) was 7.8±0.71 million/animal and the IC50 [3] was over 10000 nM.
